Assay results: patent US8901116B2, “Method for treating pain, anxiety or depression using carbamoyloxy alkanoyl piperazine compound” (SK Biopharmaceuticals Co., Ltd., priority 2007, dated 2014)

Tests used:
Type in all cases: in vivo
[1] = tested on: male ICR mouse; test: Hot plate test in mouse; conditions: po, p.o, 1 hour after dosing, hot plate 55° C., read-out: Hot Plate Test Increase in latency of avoidance response
Description: A hot plate test is one of representative models for measuring an analgesic effect of drugs. A test material dissolved in a suitable vehicle was orally administered to a male ICR mouse weighing 25 to 30 g at an amount of 30 mg/kg. After 1 hour of the oral administration, the mouse was put on a hot plate (55° C.). A latency was recorded from the time right after a mouse is put on a hot plate to the time when avoidance responses (flinching, licking, jumping, etc.) to pain are observed from forefeet or rear legs of the mouse. The analgesic effect of the test material is represented by the ‘Increase in latency of avoidance response’ {[(Latency of avoidance response to pain of Test material-administered group−Latency of avoidance response to pain of vehicle-administered group)/(Latency of avoidance response to pain of Solvent-administered group)]×100%}.

[2] = tested on: male ICR mouse; test: Elevated plus maze (EPM) test in mouse; conditions: po, p.o, 1 hour after dosing, 5 minutes observation, read-out: Elevated Plus Maze Change index in Open-Arm Time
Text: Elevated plus maze (EPM) is one of representative models that examine an anti-anxiety activity of a test material. Equipment used for an EPM test has a crossroad shape raised in a high position off the ground, and is configured in such a cliff shape that both sides of one road are protected with high walls and the other road is free from the wall. Among them, the road in the cliff shape is referred to as an ‘open arm,’ and the road protected by the walls is referred to as a ‘close arm.’ In this case, a level of the anxiety of a mouse may be measured by determining in which arm the mouse stays longer. In general, the mouse stays longer in the close arm than the open arm, but a mouse treated with a medicine showing an anti-anxiety effect stays relatively longer in the open arm. A test material dissolved in a suitable vehicle was orally administered to a male ICR mouse weighing 20 to 25 g at an amount of 10 mg/kg. After 1 hour of the oral administration, the mouse was put on the center of an EPM equipment to measure how long the mouse stays in the open arm within a time range of 5 minutes. The anti-anxiety effect of the test material is represented by the ‘Change index in Open-Arm Time’ {[(open arm duration in test material-administered group−open arm duration in vehicle-administered group)/(open arm duration in vehicle administered group)]×100%}.

[3] = tested on: male ICR mouse; test: Head twitch potentiation induced by 5-HTP (5-HTP potentiation test) in mouse; conditions: po, 0.5 h, p.o, 5-HTP 80 mg/kg + Carbidopa 25 mg/kg i.p. 30 minutes after dosing, head twitches counted for 2 minutes, negative = 5-HT2A antagonist, read-out: 5-HTP Potentiation Increase rate in Head Twitch No.
Description: When 5-hydroxy-L-tryptophan (5-HTP) is administered into a mouse, a head twitch phenomenon is observed since serotonin is increasingly secreted in the mouse. […] By using this principle, it is possible to search an effect of the representative antidepressant agent. A test material dissolved in a suitable vehicle was orally administered to a male ICR mouse weighing 20 to 25 g at an amount of 30 mg/kg. After 30 minutes of the oral administration, 5-HTP (80 mg/kg) and 5-HTP peripheral decarbozylase inhibitor ‘Carbidopa’ (25 mg/kg) were intraperitoneally administered to the mouse. After 30 minutes of the intraperitoneal administration, the mouse was put into an observation cage, and head twitches of the mouse were counted for 2 minutes. The anti-depression effect of the test material is represented by the ‘Increase rate in Head Twitch No.’ {[(Head Twitch No. of Test material-administered group−Head Twitch No. of vehicle-administered group)/(Head Twitch No. of vehicle-administered group)]×100%}. […] In addition to the selective serotonin reuptake inhibitor (SSRI) that has been widely used as an antidepressant agent in the clinical fields, it was tested that 5-HT2A antagonists such as nefazodone and trazodone also have an antidepressant effect.

[4] = tested on: male ICR mouse; test: Acetic acid-induced writhing test in mouse; conditions: po, p.o, acetic acid i.p. 1 hour after dosing, writhing counted for 10 minutes, read-out: Writhing Test Suppression of pain response
Description: An acetic acid-induced writhing test is one of models for measuring an analgesic effect of drugs. A test material dissolved in a suitable vehicle was orally administered to a male ICR mouse weighing 30 to 35 g at an amount of 10 mg/kg. After 1 hour of the oral administration, […] of an aqueous 0.8% acetic acid solution was intraperitoneally injected into the male ICR mouse to induce the abdominal pain of the male ICR mouse. Right after the administration of acetic acid, the male ICR mouse was put into an empty cage, and the number of writhing behaviors of the mice was counted for 10 minutes. The term “writhing” represents a reflex action in which the mouse overtly extends its abdomen by stretching its hind legs due to the abdominal pain. The analgesic effect of the test material is represented by the ‘suppression of pain response’ {[(Writhing number of vehicle-administered group−Writhing number of Test material—administered group)/(Writhing number of Solvent-administered group)]×100%}.

Structure (SMILES)	change in vivo at 30 mg/kg [1] [%]	change in vivo at 10 mg/kg [2] [%]	change in vivo at 30 mg/kg [3] [%]	inhibition in vivo at 10 mg/kg [4] [%]
NC(=O)O[C@H](CC(=O)N1CCN(c2ccc(Cl)cc2)CC1)c1ccccc1 [Example 61, (R)-carbamic acid 3-[4-(4-chloro-phenyl)-piperazin-1-yl]-3-oxo-1-phenyl-propyl ester]	38.8	-27.4	27.3	24.1
COc1cc(OC)cc(N2CCN(C(=O)CC(OC(N)=O)c3ccccc3)CC2)c1 (stereo not shown) [Example 11, carbamic acid 3-[4-(3,5-dimethoxy-phenyl)-piperazin-1-yl]-3-oxo-1-phenyl-propyl ester]	46.1	19.8	31.3	5.5
NC(=O)OC(CC(=O)N1CCN(c2ccccc2F)CC1)c1ccccc1 (stereo not shown) [Example 29, carbamic acid 3-[4-(2-fluoro-phenyl)-piperazin-1-yl]-3-oxo-1-phenyl-propyl ester]	0	92.3	14.3	34.5
CCOc1ccc(N2CCN(C(=O)C[C@@H](OC(N)=O)c3ccccc3)CC2)cc1 [Example 63, (R)-carbamic acid 3-[4-(4-ethoxy-phenyl)-piperazin-1-yl]-3-oxo-1-phenyl-propyl ester]	15.2	25	19.5	59.8
NC(=O)OC(CC(=O)N1CCN(c2ccc(F)cc2)CC1)c1ccccc1 (stereo not shown) [Example 1, carbamic acid 3-[4-(4-fluoro-phenyl)-piperazin-1-yl]-3-oxo-1-phenyl-propyl ester]	17	25.6	-65.7	73.5
NC(=O)O[C@@H](CC(=O)N1CCN(c2ccc(F)cc2)CC1)c1ccccc1 [Example 79, (S)-carbamic acid 3-[4-(4-fluoro)-phenylpiperazin-1-yl]-3-oxo-1-phenyl-propyl ester]	29.3	-5.1	-30	40.7
NC(=O)O[C@H](CC(=O)N1CCN(c2ccc(F)cc2F)CC1)c1ccccc1 [Example 82, (R)-carbamic acid 3-[4-(2,4-difluoro)-phenylpiperazin-1-yl]-3-oxo-1-phenyl-propyl ester]	65.7	62.6	-20	34.5
NC(=O)OC(CC(=O)N1CCN(c2ccc(O)cc2)CC1)c1ccccc1 (stereo not shown) [Example 18, carbamic acid 3-[4-(4-hydroxy-phenyl)-piperazin-1-yl]-3-oxo-1-phenyl-propyl ester]	26.4	16.1	-23.4	30.6
NC(=O)OC(CC(=O)N1CCN(c2ccc(Cl)c(Cl)c2)CC1)c1ccccc1 (stereo not shown) [Example 3, carbamic acid 3-[4-(3,4-dichloro-phenyl)-piperazin-1-yl]-3-oxo-1-phenyl-propyl ester]	38.5	9.7	54.5	65
NC(=O)OC(CC(=O)N1CCN(c2ccccc2)CC1)c1ccc(Cl)cc1Cl (stereo not shown) [Example 56, carbamic acid 1-(2,4-dichloro-phenyl)-3-oxo-3-(4-phenyl-piperazin-1-yl)-propyl ester]	11.8	23.9	40	23.3
NC(=O)OC(CC(=O)N1CCN(CCc2ccc(Cl)c(Cl)c2)CC1)c1ccccc1 (stereo not shown) [Example 39, carbamic acid 3-{4-[2-(3,4-dichloro-phenyl)-ethyl]-piperazin-1-yl}-3-oxo-1-phenyl-propyl ester]	18.7	57.8	319	23.2
NC(=O)OC(c1ccccc1)C(F)(F)C(=O)N1CCN(c2ccccc2)CC1 (stereo not shown) [Example 47, carbamic acid 2,2-difluoro-3-oxo-1-phenyl-3-(4-phenyl-piperazin-1-yl)-propyl ester]	27.2	21.4	22.5	28.8
NC(=O)O[C@H](CC(=O)N1CCN(c2ccc(O)cc2)CC1)c1ccccc1 [Example 83, (R)-carbamic acid 3-[4-(4-hydroxy)-phenylpiperazin-1-yl]-3-oxo-1-phenyl-propyl ester]	89.3	52.7	40.9	44.5
COc1ccc(N2CCN(C(=O)C[C@@H](OC(N)=O)c3ccccc3)CC2)cc1 [Example 70, (R)-carbamic acid 3-[4-(4-methoxy-phenyl)-piperazin-1-yl]-3-oxo-1-phenyl-propyl ester]	30.6	109	87.9	59.8
NC(=O)OC(CC(=O)N1CCN(c2ccccc2)CC1)c1cccc(Br)c1 (stereo not shown) [Example 46, carbamic acid 1-(3-bromo-phenyl)-3-oxo-3-(4-phenyl-piperazin-1-yl)-propyl ester]	33.1	5.7	40.3	71.3
NC(=O)OC(CC(=O)N1CCN(c2ccccc2)CC1)c1cccc(C(F)(F)F)c1 (stereo not shown) [Example 45, carbamic acid 1-(3-trifluormethyl-phenyl)-3-oxo-3-(4-phenyl-piperazin-1-yl)-propyl ester]	6.9	74.5	167	19
NC(=O)OC(CC(=O)N1CCN(c2ccccc2)CC1)c1cc(F)ccc1F (stereo not shown) [Example 57, carbamic acid 1-(2,5-difluoro-phenyl)-3-oxo-3-(4-phenyl-piperazin-1-yl)-propyl ester]	11.2	88.8	27.9	34.5
NC(=O)OC(CC(=O)N1CCN(c2ccc(F)cc2F)CC1)c1ccccc1 (stereo not shown) [Example 13, carbamic acid 3-[4-(2,4-difluoro-phenyl)-piperazin-1-yl]-3-oxo-1-phenyl-propyl ester]	21.4	12.6	-60	64
NC(=O)OC(CC(=O)N1CCN(c2cc(Cl)cc(Cl)c2)CC1)c1ccccc1 (stereo not shown) [Example 10, carbamic acid 3-[4-(3,5-dichloro-phenyl)-piperazin-1-yl]-3-oxo-1-phenyl-propyl ester]	14.8	27.3	85.7	26
